Source: paper PMC3601769 (Bioorganic & medicinal chemistry letters, 2013)

Test system: tubulin (colchicine site)
Experiment: Inhibition of colchicine binding to tubulin

Inhibition of colchicine binding (% inhibition ± SD) at 5 μM inhibitor | SMILES
inactive | CCOC(=O)c1cccc(Nc2nc(-c3ccc(OC)cc3)no2)c1 [DCP 10500035]
inactive | Fc1ccccc1Nc1nc(-c2ccccc2)no1 [DCP 10500060]
inactive | COc1ccc(OC)c(Nc2nc(-c3cccc(OC)c3OC)no2)c1 [DCP 10500070]
